We go through five compounds from US4612371A, “Anthracycline antibiotics” (Sanraku Incorporated, priority 1984, dated 1986).

SMILES strings stand for the structures. Values after ≈ are worked out from the molar mass of the structure shown.

In test [1] the test system is mouse leukemia L1210 cells. Kind of test: Inhibition of DNA synthesis in L1210 culture cells (14C-thymidine intake). The class given is cell-based. Conditions: read-out: 50% Inhibitory Concentration (IC50), Inhibition of DNA Synthesis. On the procedure: (§1) L 1210 cells of 5×10^4 /ml were inoculated on, e.g., RPM 11640 medium (Rosewellberg Research Laboratories) containing 20% bovine serum and, the substances of the present invention were added thereto, respectively, in a concentration of 0.02 to 0.25 μg/ml in a similar fashion. Cultivation was performed at 37° C. in a carbon dioxide culture bottle. Then, a 50% inhibitory action against proliferation was determined based on control fraction. Further, the aforesaid L 1210 culture cell was suspended in 10% bovine serum-containing RPM 11640 medium in a concentration of 5×10^5 /ml. After cultivating at 37° C. for 1 to 2 hours in a carbon dioxide culture bottle, the substance was added in various concentrations and, ^14 C-uridine (0.05 μCi/ml) or ^14 C-thymidine (0.05 μCi/ml) was further added thereto 15 minutes after followed by culturing at 37° C. for 60 minutes. A cold 10% trichloro-acetic acid was added to the reaction solution to discontinue the reaction and at the same time, matters insoluble in the acid were precipitated. After washing further twice with cold 5% trichloroacetic acid, the insoluble matters were dissolved in formic acid and, radioactivity was measured. A 50% intake inhibitory concentration was determined from an intake rate of radioactivity, based on the control fraction to which no substance was added.

Test [2] deals with mouse leukemia L1210 cells. The test can be described thus: Inhibition of proliferation of cultured mouse leukemia L1210 cells. It counts as cell-based. On the procedure:
as §1

The subject of test [3] is mouse leukemia L1210 cells. The test can be described thus: Inhibition of RNA synthesis in L1210 culture cells (14C-uridine intake). The class given is cell-based. Conditions: read-out: 50% Inhibitory Concentration (IC50), Inhibition of RNA Synthesis. On the procedure:
as §1

In another test the test system is mouse L1210 leukemia. The test can be described thus: In vivo anti-tumor activity against mouse L1210 leukemia. Conditions: day 1 to day 10, CDF1 mice, n = 6. An excerpt:
Inoculation: 1 × 10^5 cell/mouse (i.p.)
Treatment: day 1 to day 10 (i.p.)

The mark [4] stands for this setting: 1 h, L1210 cells 5×10^5/ml, 10% bovine serum, 14C-thymidine, 60 minutes, 37° C.
Where [5] appears, read: L1210 cells 5×10^4/ml, 20% bovine serum, 37° C., read-out: 50% Inhibitory Concentration (IC50), Inhibition of Cell Proliferation.
[6] abbreviates: 1 h, L1210 cells 5×10^5/ml, 10% bovine serum, 14C-uridine, 60 minutes, 37° C.

Regarding `CCC1(O)CC(OC2CC(N)C(O)C(C)O2)c2c(O)c3c(c(O)c2C1C(=O)OC)C(=O)c1cccc(O)c1C3=O` (stereo not shown) [D788-6], the IC50 in test [1] (L1210, 1 h) is 2.6 µg/mL (≈ 4.66 µM); in test [2] (L1210, read-out: 50% Inhibitory Concentration (IC50), Inhibition of Cell Proliferation), 0.25 µg/mL (≈ 0.448 µM); in test [3] (L1210, 1 h), 1.3 µg/mL (≈ 2.33 µM).

For the compound `CCC1(O)CC(OC2CC(N)C(O)C(C)O2)c2c(O)c3c(c(O)c2C1O)C(=O)c1cccc(O)c1C3=O` (stereo not shown) [D788-7], the results for the IC50 in test [1] (setting [4]), in test [2] (setting [5]) and in test [3] (setting [6]) were 0.29 µg/mL (≈ 0.563 µM), 0.0003 µg/mL (≈ 0.000582 µM) and 0.68 µg/mL (≈ 1.32 µM), respectively. Moreover, the “Anti-tumor Effect T/C(%)” value with mouse L1210 leukemia (4 μg/kg/day i.p.) is reported as 102%; in the test with mouse L1210 leukemia (8 μg/kg/day i.p.), 104%; with mouse L1210 leukemia (16 μg/kg/day i.p.), 133%; in the test with mouse L1210 leukemia (32 μg/kg/day i.p.) it was 187%; with mouse L1210 leukemia (62.5 μg/kg/day i.p.) it was 204%; in the test on mouse L1210 leukemia (125 μg/kg/day i.p.), 172%. Besides, in the test with mouse L1210 leukemia (250 μg/kg/day i.p.), the “Anti-tumor Effect T/C(%)” value was determined as 100%.

As for `CC(O)C1=Cc2c(O)c3c(c(O)c2[C@@H](O[C@H]2C[C@H](N)[C@H](O)[C@H](C)O2)C1)C(=O)c1c(O)cccc1C3=O` (stereo partly shown) [D788-8], the IC50 in test [1] (setting [4]) is 3.4 µg/mL (≈ 6.83 µM); in test [2] (setting [5]), 0.22 µg/mL (≈ 0.442 µM); in test [3] (setting [6]) it was 1.58 µg/mL (≈ 3.18 µM).

For the compound `COC(=O)C1c2c(O)c3c(c(O)c2C(OC2CC(N)C(O)C(C)O2)CC1(O)C(C)=O)C(=O)c1c(O)cccc1C3=O` (stereo not shown) [D788-9], the IC50 amounted to 4.2 µg/mL (≈ 7.35 µM) in test [1] (setting [4]), 0.22 µg/mL (≈ 0.385 µM) in test [2] (setting [5]) and 2.59 µg/mL (≈ 4.53 µM) in test [3] (setting [6]).

Regarding `CC1OC(OC2CC(O)(C(C)O)C(C(=O)O)c3c(O)c4c(c(O)c32)C(=O)c2c(O)cccc2C4=O)CC(N)C1O` (stereo not shown) [D788-10], the IC50 was 10 µg/mL (≈ 17.9 µM) in test [1] (setting [4]), 0.083 µg/mL (≈ 0.148 µM) in test [2] (setting [5]) and 10 µg/mL (≈ 17.9 µM) in test [3] (setting [6]).
